{
  "source": "patent US20230355613A1",
  "about": "“METHODS FOR TREATING PANCREATIC DUCTAL ADENOCARCINOMA” (HEALTH RESEARCH, INC., priority 2022, published 2023)",
  "key": {"Panc1 cells": {"system": "Panc1 cells", "experiment": "RNA-seq of JTE-607 treated cells (APA, read-through, differential expression analysis)", "format": "cell-based, human", "details": "Panc1, H3F3A and H2AZ1 normalized counts", "excerpt": "mRNA regulation is distinct between knockdown and chemical inhibition of CPSF3. Because JTE-607 inhibits CPSF3 catalytic activity without inducing target degradation, it was sought to understand if the function of CPSF3 is distinct between knockdown and inhibition. As CPSF3 is an integral component of the polyadenylation complex and the histone cleavage complex (HCC), it was hypothesized that CPSF3 disruption would dysregulate both alternative polyadenylation (APA) and histone mRNA processing. To test this hypothesis, CPSF3 knockdown and JTE-607 treated Panc1 cells were subjected to RNA-sequencing (RNA-seq). […] In the CPSF3 knockdown cells, PolyAMiner-Bulk detected 85 significant DAGs, of which 43 genes underwent 3′UTR lengthening (PolyAIndex>0.5; Padj<0.05) and 42 genes underwent 3′UTR shortening (PolyAIndex <−0.5; Padj<0.05) (FIG. 3A). In the CPSF3 inhibition model, PolyAMiner-Bulk detected 174 significant DAGs, of which 138 underwent 3′UTR lengthening (PolyAIndex>0.5; Padj<0.05) and 36 genes underwent 3′UTR shortening (PolyAIndex <−0.5; Padj<0.05) (FIG. 3B). […]\nJTE-607 inhibits expression of replication-dependent histones. JTE-607 induces global transcriptional read-through in Ewing's sarcoma cells. Therefore, it was asked whether JTE-607 would similarly induce global read-through in PDAC cells by applying the ARTDeco algorithm. […]"}, "PDAC cells": {"system": "PDAC cells", "experiment": "BrdU incorporation assay", "format": "cell-based", "details": "within 8 hours", "description": "Finally, we sought to determine how JTE-607-mediated depletion of RD histones led to defects in cell viability. As RD histones are required for cell cycle progression, we assessed the effects of JTE-607 on cell cycle distribution. […] In contrast, JTE-607 arrested Panc1 and MiaPaCa2 PDAC cells in S-phase of the cell cycle within 24 hours (FIGS. 7A and 7B). To corroborate the impact of CPSF3 knockdown on cell cycle, CPSF3 was transiently knocked-down with siRNA in Panc1 and HPNE cells (FIGS. 13D, 7C). CPSF3 knockdown induced cell cycle arrest in Panc1 cells with minimal effect on HPNE cells (FIGS. 7D and 7E). However, unlike CPSF3 inhibition-induced cell cycle arrest at S-phase, CPSF3 knockdown cells arrested at G2. […] To more specifically investigate the timing and extent of S-phase arrest upon JTE-607 treatment, BrdU incorporation was examined in a time-dependent manner (FIG. 7F). […] This is in support of previous reports where histone defects slow the progression of cells during S-phase. Therefore, JTE-607 destabilizes chromatin and attenuates PDAC cell proliferation through S-phase cell cycle arrest.\nBrdU incorporation assay. […] Cells were analyzed by flow cytometry immediately and a compensation step was performed. Data were analyzed by FCS Express software (v7.06.0015)."}},
  "data": [
    {"smiles": "CCOC(=O)[C@H](Cc1ccccc1)NC(=O)c1cc(Cl)c(OCCN2CCN(C)CC2)c(Cl)c1O", "note": "[JTE-607]", "values": [
      {"measurement": "expression of RI histones", "setting": "Panc1 cells", "result": "not downregulated"},
      {"measurement": "cell cycle arrest phase (BrdU incorporation)", "setting": "PDAC cells", "result": "early to mid S-phase"}
    ]}
  ]
}
